Source: patent US20250018049A1, “COMPOUNDS FOR DEGRADING CYCLIN-DEPENDENT KINASE 2 VIA UBIQUITIN PROTEOSOME PATHWAY” (NIKANG THERAPEUTICS, INC., priority 2020, published 2025)

What was measured:
CDK2 [1] = target: T1, CDK2 (Homo sapiens, UniProt P24941); assay: Phospho-Rb HTRF measurement in OVCAR3 cells (inhibition of CDK2); type: cell-based; parameters: High-Throughput Measurement of Cellular Endogenous CDK2; endogenous in cells; host or cells: OVCAR3; conditions: pRB(S807/811) assay, 24 h compound treatment
Protocol: Phosphorylation of RB protein at S780 and S807/811 were measured using HTRF phospho-RB cellular kits (Cat #64RBS780PEG and 64RBS807PEG) from Cisbio.
On Day 1, OVCAR3 or KYSE520 cells were seeded into 96-well tissue-culture treated plates at 20,000 cells/well in 200 μL and incubated overnight at 37° C. in CO2 atmosphere. On Day 2, the cells were treated with test compounds at concentrations from 0.3 to 10,000 nM using HP D300 digital dispenser. Twenty-four hours after compound treatment, cell culture media was removed by flicking the plate and tapping the plate against clean paper towel. Immediately 30 μL 1× lysis buffer was supplemented from the kit and the plate was incubated at room temperature on shaker for 30 min. After homogenization by pipetting up and down, 8 μL cell lysate from 96-well cell culture plate was transferred to 384-well small volume white detection plate. 2 μL premixed detection solution was added and the plate was covered with sealer. To prepare the detection solution, d2 conjugated-phospho-RB antibody and Eu-cryptate conjugated phosphor-RB antibody were diluted into detection buffer following manufacturer's instruction. Detection plates were incubated for 4 h at room temperature and read on ClarioStar (BMG Labtech) in TR-FRET mode (665 nM and 620 nM). The TR-FRET ratio (665 nM/620 nM) was plotted against the compound concentration and normalized to DMSO controls. Half maximal inhibition concentration (IC50) values are calculated with a four-parameter logistic fit using GraphPad Prism (version 8; La Jolla, CA).

CDK2 [2] = target: T1, CDK2; assay: NanoBRET CDK2 engagement assay; type: cell-based; parameters: expressed in transfected cells; conditions: OVCAR3 cells with stable CDK2-Luciferase vector, 24 hours treatment
Protocol: OVCAR3 cells with stable transfection of CDK2-Luciferase vector were seeded into 96-well plate at a density of 20,000 cells per well, 50 μL Opti-MEM medium supplemented with 1% FBS. Following morning, cells were treated with compounds of the disclosure, with starting concentration at 3 μM and ½ log dilution down to 0.3 nM for 24 hours at 37° C. DMSO treatment serves as control. Compound engagement was then measured using NanoBRE™ Kinase Kit from Promega (Part Number: CS1810C122, NanoBRET™ TE Kinase Kit #10, 1K) following manufacturer's instruction. For 24 hours treatment, tracer was added only for the last 2 hours. Briefly, 2.5 μL of complete 20× NanoBRET Tracer was added to the cells in suspension. Immediately prior to BRET measurements, prepare 3× Complete NanoBRET® Nano-Glo® Substrate in Opti-MEM without serum and phenol red. Without any delay, 25 μL per well of 3× Complete NanoBRET™ Nano-Glo® Substrate for a 96-well plate was added and mixed well. Signal was then read on a CLARIOstar® plate reader (measure donor emission (e.g., 450 nm) and acceptor emission (e.g., 610 nm or 630 nm) using a NanoBRET™-compatible luminometer. Target engagement was calculated with DMSO treatment as 100% signal, and IC50 was calculated by GraphPad Prism 9.

SMILES | IC50 (CDK2 [1]) | IC50 (CDK2 [2])
CN(C1CCN(Cc2cccc3c2n(C)c(=O)n3C2CCC(=O)NC2=O)CC1)S(=O)(=O)N1CCC(Nc2ncc3ccc(=O)n(C4CCCC4)c3n2)CC1 (stereo not drawn) [Compound 20, 4-((8-cyclopentyl-7-oxo-7,8-dihydropyrido[2,3-d]pyrimidin-2-yl)amino)-N-(1-((1-(2,6-dioxo-piperidin-3-yl)-3-methyl-2-oxo-2,3-dihydro-1H-benzo[d]imidazol-4-yl)methyl)piperidin-4-yl)-N-methylpiperidine-1-sulfonamide] | 1170 nM | 127 nM
O=C1CCC(N2C(=O)c3cc(F)c(N4CCN(Cc5cc(F)cc(S(=O)(=O)N6CCC(Nc7ncc8ccc(=O)n(C9CCCC9)c8n7)CC6)c5)CC4)cc3C2=O)C(=O)N1 (stereo not drawn) [Compound 43, 5-(4-(3-((4-((8-cyclopentyl-7-oxo-7,8-dihydro-pyrido[2,3-d]pyrimidin-2-yl)amino)piperidin-1-yl)sulfonyl)-5-fluorobenzyl)piperazin-1-yl)-2-(2,6-dioxopiperidin-3-yl)-6-fluoroisoindoline-1,3-dione] | 465 nM | 401 nM
O=C1CCC(N2C(=O)c3cc(F)c(N4CCN(Cc5cccc(S(=O)(=O)N6CCC(Nc7ncc8cc(C(F)F)c(=O)n(C9CCCC9)c8n7)CC6)c5)CC4)cc3C2=O)C(=O)N1 (stereo not drawn) [Compound 45, 5-(4-(3-((4-((8-cyclopentyl-6-(difluoromethyl)-7-oxo-7,8-dihydropyrido[2,3-d]pyrimidin-2-yl)-amino)piperidin-1-yl)sulfonyl)-benzyl)piperazin-1-yl)-2-(2,6-dioxopiperidin-3-yl)-6-fluoro-isoindoline-1,3-dione] | 267 nM | 378 nM
N#Cc1cc2cnc(NC3CCN(S(=O)(=O)c4cccc(CN5CCN(c6cc7c(cc6F)C(=O)N(C6CCC(=O)NC6=O)C7=O)CC5)c4)CC3)nc2n(C2CCCC2)c1=O (stereo not drawn) [Compound 46, 8-cyclopentyl-2-((1-((3-((4-(2-(2,6-dioxopiperidin-3-yl)-6-fluoro-1,3-dioxoisoindolin-5-yl)piperazin-1-yl)methyl)phenyl)sulfonyl)piperidin-4-yl)-amino)-7-oxo-7,8-dihydropyrido[2,3-d]-pyrimidine-6-carbonitrile] | 2920 nM | 2160 nM
O=C1CCC(N2C(=O)c3cc(F)c(N4C5CCC4CN(Cc4cccc(S(=O)(=O)N6CCC(Nc7ncc8ccc(=O)n(C9CCCC9)c8n7)CC6)c4)C5)cc3C2=O)C(=O)N1 (stereo not drawn) [Compound 47, 5-(3-(3-((4-((8-cyclopentyl-7-oxo-7,8-dihydro-pyrido[2,3-d]pyrimidin-2-yl)amino)piperidin-1-yl)sulfonyl)benzyl)-3,8-diazabicyclo[3.2.1]octan-8-yl)-2-(2,6-dioxopiperidin-3-yl)-6-fluoro-isoindoline-1,3-dione] | 4030 nM | 590 nM
O=C1CCC(N2C(=O)c3cc(F)c(N4CC5CCC(C4)N5Cc4cccc(S(=O)(=O)N5CCC(Nc6ncc7ccc(=O)n(C8CCCC8)c7n6)CC5)c4)cc3C2=O)C(=O)N1 (stereo not drawn) [Compound 49, 5-(8-(3-((4-((8-cyclopentyl-7-oxo-7,8-dihydro-pyrido[2,3-d]pyrimidin-2-yl)amino)piperidin-1-yl)sulfonyl)benzyl)-3,8-diazabicyclo[3.2.1]octan-3-yl)-2-(2,6-dioxopiperidin-3-yl)-6-fluoroi-soindoline-1,3-dione] | 836 nM | 272 nM
O=C1CCC(N2Cc3cc(N4C5CCC4CN(Cc4cccc(S(=O)(=O)N6CCC(Nc7ncc8ccc(=O)n(C9CCCC9)c8n7)CC6)c4)C5)ccc3C2=O)C(=O)N1 (stereo not drawn) [Compound 52, 3-(5-(3-(3-((4-((8-cyclopentyl-7-oxo-7,8-dihydropyrido[2,3-d]pyrimidin-2-yl)amino)-piperidin-1-yl)sulfonyl)benzyl)-3,8-diazabicyclo-[3.2.1]octan-8-yl)-1-oxoisoindolin-2-yl)piperidine-2,6-dione] | 1420 nM | 499 nM
CO[C@H]1CN(S(=O)(=O)c2cccc(CN3CCN(c4cc5c(cc4F)C(=O)N(C4CCC(=O)NC4=O)C5=O)CC3)c2)CC[C@@H]1Nc1ncc2ccc(=O)n(C3CCCC3)c2n1 (stereo partly drawn) [Compound 64, 5-(4-(3-(((3S,4S)-4-((8-cyclopentyl-7-oxo-7,8-dihydropyrido[2,3-d]pyrimidin-2-yl)amino)-3-methoxypiperidin-1-yl)sulfonyl)benzyl)piperazin-1-yl)-2-(2,6-dioxopiperidin-3-yl)-6-fluoro-isoindoline-1,3-dione] | 7940 nM | 3040 nM

The next lines start with the values.

IC50 (CDK2 [1]) | IC50 (CDK2 [2]) | SMILES
194 nM | 169 nM | CN(C[C@H]1CN(CCCc2cccc3c2n(C)c(=O)n3C2CCC(=O)NC2=O)CCO1)S(=O)(=O)N1CCC(Nc2ncc3ccc(=O)n(C4CCCC4)c3n2)CC1 (stereo partly drawn) [Compound 24, 4-((8-cyclopentyl-7-oxo-7,8-dihydropyrido[2,3-d]pyrimidin-2-yl)amino)-N-(((2R)-4-(3-(1-(2,6-dioxopiperidin-3-yl)-3-methyl-2-oxo-2,3-dihydro-1H-benzo[d]imidazol-4-yl)propyl)morpholin-2-yl)methyl)-N-methylpiperidine-1-sulfonamide]
882 nM | 334 nM | O=C1CCC(N2Cc3c(OCCN4CC(Oc5cccc(S(=O)(=O)N6CCC(Nc7ncc8ccc(=O)n(C9CCCC9)c8n7)CC6)c5)C4)cccc3C2=O)C(=O)N1 (stereo not drawn) [Compound 27, 3-(4-(2-(3-(3-((4-((8-cyclopentyl-7-oxo-7,8-dihydropyrido[2,3-d]pyrimidin-2-yl)amino)-piperidin-1-yl)sulfonyl)phenoxy)azetidin-1-yl)-ethoxy)-1-oxoisoindolin-2-yl)piperidine-2,6-dione]
216 nM | 426 nM | O=C1CCC(N2Cc3c(OCCN4CCC(Oc5cccc(S(=O)(=O)N6CCC(Nc7ncc8ccc(=O)n(C9CCCC9)c8n7)CC6)c5)CC4)cccc3C2=O)C(=O)N1 (stereo not drawn) [Compound 29, 3-(4-(2-(4-(3-((4-((8-cyclopentyl-7-oxo-7,8-dihydropyrido[2,3-d]pyrimidin-2-yl)amino)-piperidin-1-yl)sulfonyl)phenoxy)piperidin-1-yl)ethoxy)-1-oxoisoindolin-2-yl)piperidine-2,6-dione]
294 nM | 64 nM | Cn1c(=O)n(C2CCC(=O)NC2=O)c2cccc(C3CCN(C4CCN(S(=O)(=O)N5CCC(Nc6ncc7ccc(=O)n(C8CCCC8)c7n6)CC5)CC4)CC3)c21 (stereo not drawn) [Compound 31, 3-(4-(1′-((4-((8-cyclopentyl-7-oxo-7,8-dihydro-pyrido[2,3-d]pyrimidin-2-yl)amino)piperidin-1-yl)sulfonyl)-[1,4′-bipiperidin]-4-yl)-3-methyl-2-oxo-2,3-dihydro-1H-benzo[d]imidazol-1-yl)piperidine-2,6-dione]
317 nM | 59 nM | Cn1c(=O)n(C2CCC(=O)NC2=O)c2cccc(C3CCN(C4CC5(C4)CN(S(=O)(=O)N4CCC(Nc6ncc7ccc(=O)n(C8CCCC8)c7n6)CC4)C5)CC3)c21 (stereo not drawn) [Compound 32, 3-(4-(1-(2-((4-((8-cyclopentyl-7-oxo-7,8-dihydro-pyrido[2,3-d]pyrimidin-2-yl)amino)piperidin-1-yl)sulfonyl)-2-azaspiro[3.3]heptan-6-yl)piperidin-4-yl)-3-methyl-2-oxo-2,3-dihydro-1H-benzo[d]imidazol-1-yl)piperidine-2,6-dione]
135 nM | 297 nM | Cn1c(=O)n(C2CCC(=O)NC2=O)c2cccc(C3CN(Cc4cccc(S(=O)(=O)N5CCC(Nc6ncc7ccc(=O)n(C8CCCC8)c7n6)CC5)c4)C3)c21 (stereo not drawn) [Compound 40, 3-(4-(1-(3-((4-((8-cyclopentyl-7-oxo-7,8-dihydropyrido[2,3-d]pyrimidin-2-yl)amino)piperidin-1-yl)sulfonyl)benzyl)azetidin-3-yl)-3-methyl-2-oxo-2,3-dihydro-1H-benzo[d]imidazol-1-yl)piperidine-2,6-dione]
27 nM | 150 nM | O=C1CCC(N2Cc3cc(CN4CC(Oc5cccc(S(=O)(=O)N6CCC(Nc7ncc8ccc(=O)n(C9CCCC9)c8n7)CC6)c5)C4)ccc3C2=O)C(=O)N1 (stereo not drawn) [Compound 67, 3-(5-((3-(3-((4-((8-cyclopentyl-7-oxo-7,8-dihydro-pyrido[2,3-d]pyrimidin-2-yl)amino)piperidin-1-yl)sulfonyl)phenoxy)azetidin-1-yl)methyl)-1-oxoisoindolin-2-yl)piperidine-2,6-dione]
